According to ChEMBL document CHEMBL4390668, “Discovery and Structural Optimization of Acridones as Broad-Spectrum Antimalarials” (J Med Chem, 2019):
Active and inactive are the calls of the source. No cut-off for these calls is given here.

Key:
Plasmodium falciparum [1] = assay: Antimalarial activity against drug-resistant Plasmodium falciparum Dd2 harboring M133I mutant infected in human erythrocytes after 72 hrs by SYBR green 1-based fluorescence assay; assay type: functional, organism-based; details: Dd2, 72 h
Plasmodium falciparum [2] = assay: Antimalarial activity against drug-resistant Plasmodium falciparum Dd2 harboring V259L mutant infected in human erythrocytes after 72 hrs by SYBR green 1-based fluorescence assay; assay type: functional, organism-based; details: Dd2, 72 h
Plasmodium falciparum [3] = assay: Antimalarial activity against Plasmodium falciparum 3D7 infected in human erythrocytes after 72 hrs by SYBR green 1-based fluorescence assay; assay type: functional, organism-based; details: 3D7, 72 h
Plasmodium falciparum [4] = assay: Inhibition of Plasmodium falciparum cytochrome b-c1
Plasmodium falciparum [5] = assay: Antimalarial activity against drug-resistant Plasmodium falciparum 3D7 harboring A82T/V259L double mutant infected in human erythrocytes after 72 hrs by SYBR green 1-based fluorescence assay; assay type: functional, organism-based; details: 3D7, 72 h
Plasmodium falciparum [6] = assay: Antimalarial activity against drug-resistant Plasmodium falciparum Dd2 harboring M133I/A138T double mutant infected in human erythrocytes after 72 hrs by SYBR green 1-based fluorescence assay; assay type: functional, organism-based; details: Dd2, 72 h
Plasmodium falciparum [7] = assay: Antimalarial activity against multidrug-resistant Plasmodium falciparum Dd2 infected in human erythrocytes by SYBR green 1-based fluorescence assay; assay type: functional, organism-based
[8] = Tmax in ICR mouse liver at 80 mg/kg, po administered as single dose; assay type: ADME, organism-based
[9] = Apparent volume of distribution in ICR mouse plasma at 80 mg/kg, po administered as single dose; assay type: ADME, organism-based; details: in vivo
[10] = Mean residence time in ICR mouse liver at 80 mg/kg, po administered as single dose; assay type: ADME, organism-based
Plasmodium falciparum [11] = assay: Antimalarial activity against atovaquone-resistant Plasmodium falciparum Tm90-C2B infected in human erythrocytes by SYBR green 1-based fluorescence assay; assay type: functional, organism-based
[12] = Tmax in ICR mouse plasma at 80 mg/kg, po administered as single dose; assay type: ADME, organism-based; details: ICR, plasma, read-out: Tmax
[13] = AUC (0 to last) in ICR mouse liver at 80 mg/kg, po administered as single dose; assay type: ADME, organism-based; set-up: dose 80 mg/kg, route oral, time 0 - last
[14] = AUC (0 to last) in ICR mouse plasma at 80 mg/kg, po administered as single dose; assay type: ADME, organism-based; set-up: dose 80 mg/kg, route oral, time 0 - last
Plasmodium berghei [15] = assay: Antimalarial activity against luciferase-expressing Plasmodium berghei ANKA 676m1cl1 sporozoites infected in human HepG2A16 cells measured after 45 hrs by luciferase-luciferin based reporter assay; assay type: functional, organism-based; details: ANKA 676m1cl1, HepG2A16, 45 h
[16] = Half life in human liver microsomes at 1 uM by LC-MS analysis; assay type: ADME, Microsome
[17] = Cmax in ICR mouse plasma at 80 mg/kg, po administered as single dose; assay type: ADME, organism-based; set-up: dose 80 mg/kg, route oral; details: ICR, plasma, read-out: Cmax
[18] = Mean residence time in ICR mouse plasma at 80 mg/kg, po administered as single dose; assay type: ADME, organism-based
[19] = Cmax in ICR mouse liver at 80 mg/kg, po administered as single dose; assay type: ADME, organism-based; set-up: dose 80 mg/kg, route oral
[20] = AUC (0 to infinity) in ICR mouse plasma at 80 mg/kg, po administered as single dose; assay type: ADME, organism-based; set-up: dose 80 mg/kg, route oral, time infinity; details: ICR, plasma
[21] = Half life in mouse liver microsomes at 1 uM by LC-MS analysis; assay type: ADME, Microsome
HepG2 = assay: Cytotoxicity against human HepG2 cells measured after 24 to 36 hrs by resazurin dye based fluorescence assay; assay type: cell-based
[22] = AUC (0 to infinity) in ICR mouse liver at 80 mg/kg, po administered as single dose; assay type: ADME, organism-based; set-up: dose 80 mg/kg, route oral, time infinity
[23] = Apparent elimination half life in ICR mouse plasma at 80 mg/kg, po administered as single dose; assay type: ADME, organism-based; details: ICR, plasma, read-out: betat1/2(app) (converted)
Plasmodium yoelii = assay: Antimalarial activity against blood stage Plasmodium yoelii MR4 MRA-428 infected in CF1 mouse assessed as suppression of parasitemia administered once daily via oral gavage for 4 days starting from 24 hrs post-infection and measured post-last dose by Giemsa-staining based microscopic analysis; assay type: functional
[24] = Apparent elimination half life in ICR mouse liver at 80 mg/kg, po administered as single dose; assay type: ADME, organism-based; details: read-out: betat1/2(app) (converted)
Plasmodium falciparum [25] = assay: Antimalarial activity against multidrug-resistant Plasmodium falciparum 7G8 infected in human erythrocytes by SYBR green 1-based fluorescence assay; assay type: functional, organism-based
Plasmodium falciparum [26] = assay: Antimalarial activity against chloroquine-sensitive Plasmodium falciparum D6 infected in human erythrocytes by SYBR green 1-based fluorescence assay; assay type: functional, organism-based
[27] = Selectivity index, ratio of IC50 for human HepG2 cells to IC50 for chloroquine-sensitive Plasmodium falciparum D6 infected in human erythrocytes; assay type: toxicity, cell-based; details: read-out: Ratio IC50
Plasmodium berghei [28] = assay: (§1) Antimalarial activity against liver stage luciferase-expressing Plasmodium berghei ANKA 676m1cl1 sporozoites infected in C57BL/6 mouse assessed as suppression of parasitemia at 40 to 160 mg/kg, po pretreated for 1 day followed by parasite infection and subsequent compound dosing for 2 days measured at 24 to 48 hrs post-infection by luciferin-based real-time imaging analysis; assay type: functional
[29] = Apparent clearance in ICR mouse plasma at 80 mg/kg, po administered as single dose; assay type: ADME, organism-based; details: read-out: CL(app) (converted)
[30] = Mutagenicity in Salmonella typhimurium TA100 assessed as increase in revertant colonies up to 10 uM in absence of S9 fraction by Ames test; assay type: toxicity; details: salmonella enterica subsp. enterica serovar typhimurium
Plasmodium berghei [31] = assay: as §1, with “10” for “40 to 160”; assay type: functional
[32] = Mutagenicity in Salmonella typhimurium TA98 assessed as increase in revertant colonies up to 10 uM in presence of S9 fraction by Ames test; assay type: toxicity, subcellular; details: salmonella enterica subsp. enterica serovar typhimurium
[33] = Mutagenicity in Salmonella typhimurium TA98 assessed as increase in revertant colonies up to 10 uM in absence of S9 fraction by Ames test; assay type: toxicity; details: salmonella enterica subsp. enterica serovar typhimurium
Plasmodium berghei [34] = assay: as §1, with “blood” for “liver”, “10” for “40 to 160”, “up” for “at 24”, “30 days” for “48 hrs”, “YOYO1 staining based flow cytometry” for “luciferin-based real-time imaging analysis”; assay type: functional
hERG (KCNH2) = hERG (KCNH2) (Homo sapiens, UniProt Q12809); assay: Inhibition of human ERG expressed in CHOK1 cells at 10 uM by automated patch clamp method relative to control; assay type: cell-based; details: CHO-K1 cells that express hERG
[35] = Mutagenicity in Salmonella typhimurium TA100 assessed as increase in revertant colonies up to 10 uM in presence of S9 fraction by Ames test; assay type: toxicity, subcellular; details: salmonella enterica subsp. enterica serovar typhimurium

Sequence of hERG (KCNH2) (Q12809 whole entry): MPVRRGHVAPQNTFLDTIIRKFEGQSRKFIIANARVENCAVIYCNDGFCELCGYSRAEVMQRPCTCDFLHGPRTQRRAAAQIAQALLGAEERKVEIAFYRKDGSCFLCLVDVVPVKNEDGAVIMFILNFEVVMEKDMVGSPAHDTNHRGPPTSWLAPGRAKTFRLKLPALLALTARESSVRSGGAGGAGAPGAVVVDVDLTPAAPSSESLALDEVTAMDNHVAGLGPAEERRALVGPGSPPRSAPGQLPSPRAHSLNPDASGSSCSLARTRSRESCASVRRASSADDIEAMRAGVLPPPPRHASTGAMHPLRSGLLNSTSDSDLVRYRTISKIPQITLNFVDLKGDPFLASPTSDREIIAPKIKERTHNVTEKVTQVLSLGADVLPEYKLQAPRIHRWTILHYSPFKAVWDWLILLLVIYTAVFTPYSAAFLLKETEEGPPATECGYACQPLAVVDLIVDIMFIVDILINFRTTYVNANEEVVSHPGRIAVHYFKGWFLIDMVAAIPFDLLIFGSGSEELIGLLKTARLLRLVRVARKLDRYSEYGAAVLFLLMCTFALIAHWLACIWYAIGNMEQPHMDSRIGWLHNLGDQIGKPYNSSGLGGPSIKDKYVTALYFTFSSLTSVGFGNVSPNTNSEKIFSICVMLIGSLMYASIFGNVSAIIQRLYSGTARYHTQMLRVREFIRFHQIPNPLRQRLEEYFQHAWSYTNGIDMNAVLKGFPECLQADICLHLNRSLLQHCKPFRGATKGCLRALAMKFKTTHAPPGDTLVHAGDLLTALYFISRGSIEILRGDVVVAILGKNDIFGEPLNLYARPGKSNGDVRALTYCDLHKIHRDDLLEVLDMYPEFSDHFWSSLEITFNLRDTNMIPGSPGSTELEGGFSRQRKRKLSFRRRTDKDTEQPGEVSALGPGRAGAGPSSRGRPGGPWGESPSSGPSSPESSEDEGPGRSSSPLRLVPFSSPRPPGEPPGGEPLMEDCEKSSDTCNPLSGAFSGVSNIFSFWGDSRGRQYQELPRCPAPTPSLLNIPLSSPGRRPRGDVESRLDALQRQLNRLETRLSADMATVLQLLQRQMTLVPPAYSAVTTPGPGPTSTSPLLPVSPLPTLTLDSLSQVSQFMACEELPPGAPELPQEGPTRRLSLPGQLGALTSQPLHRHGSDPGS

Molecule `Clc1ccc2c(N3CCN(CCCN4CCN(c5ccnc6cc(Cl)ccc56)CC4)CC3)ccnc2c1` [PIPERAQUINE] has an IC50 (Plasmodium falciparum [1]) of 10 nM, an IC50 (Plasmodium falciparum [2]) of 7.1 nM and an IC50 (Plasmodium falciparum [3]) of 7.2 nM. For the same molecule, the inhibition (Plasmodium falciparum [4]) was “inactive”, the IC50 (Plasmodium falciparum [5]) was 5 nM and the IC50 (Plasmodium falciparum [6]) was 7.4 nM.

`CCN(CC)CCOc1ccc2c(=O)c3ccc(Cl)cc3[nH]c2c1` gave an IC50 (Plasmodium falciparum [7]) of 41 to 117 nM, a Tmax [8] of 1 h and a Vz [9] of 37.689 L/kg. For the same molecule, the IC50 (Plasmodium falciparum [2]) was 2120 nM, the MRT [10] was 5.59 h and the IC50 (Plasmodium falciparum [3]) was 84 nM. It also gave an IC50 (Plasmodium falciparum [11]) of 589 nM, a Tmax [12] of 2 h and an AUC(0-t) [13] of 1460 µg·h/mL. For the same molecule, the AUC(0-t) [14] was 5.31 µg·h/mL, the IC50 (Plasmodium berghei [15]) was 113 nM and the half-life at 1 µM [16] was over 1 h. For the same molecule, the inhibition (Plasmodium falciparum [4]) was “inactive”, the Cmax [17] was 1360 ng/mL and the MRT [18] was 3.41 h. It also gave a Cmax [19] of 193000 ng/mL, an IC50 (Plasmodium falciparum [5]) of 1640 nM and an AUC(0-inf) [20] of 5.81 µg·h/mL. For the same molecule, the half-life at 1 µM [21] was over 1 h, the IC50 (HepG2) was 36400 nM and the IC50 (Plasmodium falciparum [6]) was 1070 nM. For the same molecule, the AUC(0-inf) [22] was 1460 µg·h/mL, the half-life [23] was 1.9 h and the ED50 (Plasmodium yoelii) was 48 mg/kg.day. It also gave an ED90 (Plasmodium yoelii) of 72 mg/kg.day, a half-life [24] of 6.7 h and an IC50 (Plasmodium falciparum [25]) of 38 nM. For the same molecule, the IC50 (Plasmodium falciparum [26]) was 32 nM, the selectivity ratio [27] was 1140 and the Activity (Plasmodium berghei [28]) was 100%. For the same molecule, the CL/F [29] was 230 mL/min/kg.

With `CCCN(CCC)CCCOc1ccc2c(=O)c3c(F)cc(F)cc3[nH]c2c1` the IC50 (Plasmodium falciparum [7]) was 0.49 nM, the Activity [30] was “Non-Toxic” and the Tmax [8] was 4 h. The Vz [9] was 175.302 L/kg, the Activity (Plasmodium berghei [31]) was 100% and the MRT [10] was 13.3 h. The Activity [32] was “Non-Toxic”, the IC50 (Plasmodium falciparum [11]) was 440 nM and the Tmax [12] was 7.78 h. For the same molecule, the AUC(0-t) [13] was 236 µg·h/mL, the AUC(0-t) [14] was 3.43 µg·h/mL and the Activity [33] was “Non-Toxic”. The IC50 (Plasmodium berghei [15]) was 3.4 nM, the half-life at 1 µM [16] was over 1 h and the Cmax [17] was 526 ng/mL. The MRT [18] was 11.8 h, the Cmax [19] was 19700 ng/mL and the AUC(0-inf) [20] was 5.08 µg·h/mL. It also gave an Activity (Plasmodium berghei [34]) of 100%, an inhibition at 10 µM (hERG (KCNH2)) of 102% and a half-life at 1 µM [21] of over 1 h. It also gave an IC50 (HepG2) of 61500 nM, an AUC(0-inf) [22] of 237 µg·h/mL and a half-life [23] of 7.78 h. For the same molecule, the ED50 (Plasmodium yoelii) was 0.6 mg/kg.day, the ED90 (Plasmodium yoelii) was 2.48 mg/kg.day and the Activity [35] was “Non-Toxic”. The half-life [24] was 6.59 h, the IC50 (Plasmodium falciparum [25]) was 2.1 nM and the IC50 (Plasmodium falciparum [26]) was 0.35 nM. The selectivity ratio [27] was 176000 and the CL/F [29] was 265 mL/min/kg.
